We go through two substances from patent US7696339B2, “Nucleic acid encoding monkey QRFP” (Banyu Pharmaceutical Co., Ltd., priority 2004, dated 2010).

Square brackets hold non-standard residues; d marks the D form. pGlu = O=C1CC[C@@H](C(=O)O)N1

Assay type in all cases: cell-based
For one experiment, the system named is monkey GPR103. In words: Intracellular calcium ion concentration increasing activity (FLIPR) in monkey GPR103 gene-expressing CHO cells. The note with it: Fluo4, read-out: 50% effective concentration, intracellular calcium ion concentration increasing activity. On the procedure:
(§1) CHO cells were transfected with pEF1/V5-HisB plasmid vector carrying the monkey GPR103 gene or human GPR103 gene obtained in Example 1 and the same vector without the insert (mock), and Geneticin (Invitrogen Corp.) was added to the medium to a final concentration of 2 mg/ml for selection of expressing cells. Next, the monkey or human GPR103 gene-expressing cells were singly cloned by the limiting dilution method and supplied for the following test. The monkey QRFP43 and QRFP26 synthesized by the method described in Example 6 were also supplied for the test.
(§2) After 24 hours of culturing, the cells were seeded in a 96-well poly-D-lysine coated black culture plate (Becton Dickinson) at 2.5×10^4 cells/well and cultured for two nights. […] Different concentrations of monkey QRFP43 or QRFP26 dissolved in the assay buffer were also set in the FLIPR, and then a sample was added to the cells and the change in intracellular calcium ion concentration-dependent fluorescence produced by irradiation with exciting light was measured.
(§3) Defining the change in fluorescence as the difference between the fluorescence immediately before addition of monkey QRFP43 or QRFP26 and the maximum value after addition, a Prism Version 4.00 (GraphPad) was used to graph the change in fluorescence due to each concentration of peptide (protein), and the 50% effective concentration was determined.

Another experiment has as its target T1, human GPR103 (Homo sapiens, UniProt Q96P65).
T1 construct: expressed in transfected cells; host or cells: CHO cells, Geneticin-selected, single clone by limiting dilution
T1 sequence (Q96P65 1-431): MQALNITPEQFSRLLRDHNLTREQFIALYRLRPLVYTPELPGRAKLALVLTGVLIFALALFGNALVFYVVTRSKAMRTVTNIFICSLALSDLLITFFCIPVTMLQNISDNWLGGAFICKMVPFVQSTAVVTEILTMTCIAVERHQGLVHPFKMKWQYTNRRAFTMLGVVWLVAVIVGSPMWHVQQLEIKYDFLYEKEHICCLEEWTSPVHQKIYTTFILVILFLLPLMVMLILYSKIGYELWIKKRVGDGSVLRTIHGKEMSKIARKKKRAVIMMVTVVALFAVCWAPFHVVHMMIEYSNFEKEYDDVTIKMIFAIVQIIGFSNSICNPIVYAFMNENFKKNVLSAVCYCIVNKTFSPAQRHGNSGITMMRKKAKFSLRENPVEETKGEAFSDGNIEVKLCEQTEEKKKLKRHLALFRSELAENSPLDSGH
In words: Intracellular calcium ion concentration increasing activity (FLIPR) in human GPR103 gene-expressing CHO cells. As to conditions: Fluo4, read-out: 50% effective concentration, intracellular calcium ion concentration increasing activity. On the procedure: as §1, §2, §3

The test system of experiment [1] is CHO cells transfected with the mock vector. In words: Intracellular calcium ion concentration change in CHO cells transfected with the mock vector. The method, then:
as §1, §2, §3

For the substance “H-ASGPLGNLAEELNGYSRKKGGFSFRF-NH2 [monkey QRFP26]”, the EC50 with monkey GPR103 is 9.2 nM; on human GPR103, 1.7 nM. In addition, the “change in intracellular calcium ion concentration” value in experiment [1] was “no change”.

In the case of “[pGlu]DEGSEADDFLPAGGVKASGPLGNLAEELNGYSRKKGGFSFRF-NH2 [monkey QRFP43]”, the results for the EC50 in the experiment with monkey GPR103 and on human GPR103 were 69 nM and 58 nM, respectively. The “change in intracellular calcium ion concentration” value in experiment [1] is “no change”.
